The results in this text go back to ChEMBL document CHEMBL1201862, “PubChem BioAssay data set” (2004).

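1) Cells in 96-well plates. 2) Compound, 48 h, 5 concentrations. 3) Linear interpolation between surrounding doses. 4) Unreached endpoint = highest concentration. GI50 is the concentration that inhibits growth by half.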 The source made the active and inactive calls. No stated cut-off is given here; in the data, active = GI50 up to about 1.1 µM and inactive = higher. Residues, ends and D or L forms follow the SMILES beside them. *: point of attachment. Boc = CC(C)(C)OC(=O)* Bounds are passed on as bounds.

For this assay, the system named is BT-549. The assay can be described thus: NCI-60 cell line screen, 48 h.
With `CCOC(=O)c1nc2c(Cl)c3ncccc3cc2[nH]c1=O`, the GI50 is 21.5 µM (inactive).

As to `Nc1c(C(=O)O)nnc2cc(Cl)c(Cl)cc12`, the GI50 was 72.6 µM (inactive).

As for `COC(=O)C(Cc1ccc2c(c1)CCC2)Cc1ccc2c(c1)CCC2`, the GI50 was 27.1 µM (inactive).

Turning to `COC(=O)c1ccc(COC(=O)N2C=CCC2C(=O)O)cc1` (stereo not drawn), the GI50 was > 100 µM (inactive).

`CSC12c3cc(C)n(-c4ccc(I)cc4)c3CC(C)(C)CN1C(=O)C2Oc1ccccc1` (stereo not drawn): the GI50 was > 100 µM (inactive).

In the case of `COc1ccc(OC)c2sc(N3C(=O)/C(=C/c4ccc(SC)cc4)N=C3c3ccccc3)nc12`, the GI50 is 29.4 µM (inactive).

Take `Oc1c(C2=NNC(c3cccs3)C2)ccc2ccccc12` (stereo not drawn): the GI50 is 32.5 µM (inactive).

For the molecule `CC(C)=CC1CC(C)C2(CCC3(C)CC4C(C(=O)CC4(C)O)/C(C=O)=C\CC32)O1` (stereo not drawn), the GI50 was 0.177 µM (active).

Consider `C=C(C)C1CCC2(C)C1CCC1(C)C2CCC2C3(C)C4OC(OC4=O)C(C)(C)C3CCC21C` (stereo not drawn), for which the GI50 was > 100 µM (inactive).

Regarding `COS(C)(=O)=O` [METHANESULFONIC ACID METHYL ESTER], the GI50 is > 2 µM (inactive).

Take `COc1ccc(C2SCC(=O)N2c2ccc(-c3ccc(-n4c(-c5ccccc5)nc5ccccc5c4=O)cc3)cc2)cc1` (stereo not drawn): the GI50 is 22.8 µM (inactive).

Consider `O=C1CSC(c2ccccc2[N+](=O)[O-])N1c1ccc(-c2ccc(-n3c(-c4ccccc4)nc4ccccc4c3=O)cc2)cc1` (stereo not drawn), for which the GI50 is > 100 µM (inactive).

As for `Cn1cc2c3ccccc3nc-2c2ccccc21` [ISOCRYPTOLEPINE], the GI50 is 3.26 µM (inactive).

`COc1ccc(C(C#N)NC23CC4CC(CC(C4)C2)C3)cc1` (stereo not drawn): the GI50 was > 100 µM (inactive).

With `C=C1C[C@@H](O)[C@@H](Br)C(C)(C)[C@@]12C=CC(=O)CC2`, the GI50 is > 100 µM (inactive).

As to `O=C1C(N2CCN(c3ccccn3)CC2)=C(Cl)C(=O)c2ncccc21`, the GI50 was > 10 µM (inactive).

In the case of `CCOC(=O)/C(C#N)=C1\c2c([nH]c(=S)[nH]c2=O)Oc2ccc3ccccc3c21`, the GI50 is > 100 µM (inactive).

Regarding `Cc1ccc(C2=C(Cl)C(=O)C(c3ccc(C)cc3)=C(Cl)C2=O)cc1`, the GI50 is > 100 µM (inactive).

Take `COC(=O)[C@@H](COC(=O)/C=C/c1ccc(OC(C)=O)c(OC(C)=O)c1)NC(=O)/C=C/c1ccc(OC(C)=O)c(OC(C)=O)c1`: the GI50 was 60.8 µM (inactive).

On to `C[C@@H](c1ccccc1)N1CN(C(=O)OCc2ccccc2)C(CO)C1=O` (stereo partly drawn), for which the GI50 is > 100 µM (inactive).

Turning to `CC1=CC(=O)N(n2c(-c3ccccc3)n[nH]c2=O)C1=O`, the GI50 is > 100 µM (inactive).

Take `N#CCCN(CCN(CCN(C(=O)Nc1ccccc1)c1ccccc1)C(=O)Nc1ccccc1)C(=O)Nc1ccccc1`: the GI50 is > 100 µM (inactive).

On to `CO[C@@H]1C[C@H](OC(N)=O)[C@@H]2C=C[C@@H]3/C=C(C)/C=C/[C@@H](C)[C@H]([C@H](C)[C@H](O)[C@@H](C)NC(C)=O)OC(=O)/C=C/C=C(C)\C=C\[C@]3(C)[C@@H]2C1`, for which the GI50 is 2.16 µM (inactive).

Take `CC(C)(C)OC(=O)N1CCc2[nH][nH]c(=O)c2C1`: the GI50 is > 100 µM (inactive).

In the case of `O=C1CC(NC(=O)C(F)(F)F)c2c1csc2Br` (stereo not drawn), the GI50 is 44.1 µM (inactive).

Regarding `CCOC(=O)CCC1(C(=O)O[C@@H]2C[C@H](C)CC[C@H]2C(C)C)CCCCC1=O` (stereo partly drawn), the GI50 is > 100 µM (inactive).

For `CSC1=NN=C(SC)NN1`, the GI50 was 0.151 µM (active).

`CCOC(=O)c1cc2c([nH]1)c(OC(C)=O)cc1c2ccn1Cc1ccccc1`: the GI50 was > 100 µM (inactive).

`Cc1nc(Nc2nc3ccccc3[nH]2)nc(Cl)c1CCCl`: the GI50 is > 100 µM (inactive).

`NS(=O)(=O)c1ccc2c(c1)OCCOCCOCCOCCO2`: the GI50 was > 100 µM (inactive).

Take `CC(C)(C)OC(=O)NC(Cc1ccc(O)cc1)C(=O)NC(CCCCN)C(=O)O` (stereo not drawn) (Boc-Tyr-Lys-OH; configuration not given here): the GI50 is 20 µM (inactive).

On to `O=C1/C(=C/c2cccnc2)SC(=S)N1Cc1ccco1`, for which the GI50 was 27.2 µM (inactive).

Take `O=C(O)CCC(C(=O)O)N1C(=O)c2ccccc2C1=O` (stereo not drawn): the GI50 was > 100 µM (inactive).
